Activity calls are given as the source filed them.
Key:
Leucine aminopeptidase = target: T1, Leucine aminopeptidase (Plasmodium falciparum 3D7, UniProt Q8IL11); experiment: P. falciparum M17LAP inhibitors, primary screen, biochemical, fluorogenic H-Leu-NHMec substrate, 1536-well (AID 1619); format: functional
T1 sequence (Q8IL11 whole entry): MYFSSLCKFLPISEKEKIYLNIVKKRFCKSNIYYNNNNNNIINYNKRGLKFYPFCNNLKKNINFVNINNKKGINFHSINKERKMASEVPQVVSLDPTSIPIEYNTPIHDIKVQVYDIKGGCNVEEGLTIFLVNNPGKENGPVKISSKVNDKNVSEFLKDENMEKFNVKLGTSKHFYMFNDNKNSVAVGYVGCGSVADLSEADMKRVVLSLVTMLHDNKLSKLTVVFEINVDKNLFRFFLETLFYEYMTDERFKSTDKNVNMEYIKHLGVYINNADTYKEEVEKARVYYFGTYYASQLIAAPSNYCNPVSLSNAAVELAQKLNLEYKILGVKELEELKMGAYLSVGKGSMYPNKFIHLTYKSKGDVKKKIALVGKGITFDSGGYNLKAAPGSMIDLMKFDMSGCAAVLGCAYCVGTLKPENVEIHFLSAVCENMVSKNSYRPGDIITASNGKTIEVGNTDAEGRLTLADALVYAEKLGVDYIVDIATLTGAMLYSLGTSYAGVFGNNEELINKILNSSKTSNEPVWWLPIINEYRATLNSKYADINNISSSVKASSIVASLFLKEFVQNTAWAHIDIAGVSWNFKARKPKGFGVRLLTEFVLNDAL

Aminopeptidase N = target: T2, Aminopeptidase N (Plasmodium falciparum FcB1/Columbia, UniProt O96935); experiment: malaria alanyl aminopeptidase activity blockers – biochemical, fluorogenic H-Leu-NHMec substrate, 1536-well (AID 1445); set-up: species or system Plasmodium falciparum 3D7, 3D7
T2 sequence (O96935 whole entry): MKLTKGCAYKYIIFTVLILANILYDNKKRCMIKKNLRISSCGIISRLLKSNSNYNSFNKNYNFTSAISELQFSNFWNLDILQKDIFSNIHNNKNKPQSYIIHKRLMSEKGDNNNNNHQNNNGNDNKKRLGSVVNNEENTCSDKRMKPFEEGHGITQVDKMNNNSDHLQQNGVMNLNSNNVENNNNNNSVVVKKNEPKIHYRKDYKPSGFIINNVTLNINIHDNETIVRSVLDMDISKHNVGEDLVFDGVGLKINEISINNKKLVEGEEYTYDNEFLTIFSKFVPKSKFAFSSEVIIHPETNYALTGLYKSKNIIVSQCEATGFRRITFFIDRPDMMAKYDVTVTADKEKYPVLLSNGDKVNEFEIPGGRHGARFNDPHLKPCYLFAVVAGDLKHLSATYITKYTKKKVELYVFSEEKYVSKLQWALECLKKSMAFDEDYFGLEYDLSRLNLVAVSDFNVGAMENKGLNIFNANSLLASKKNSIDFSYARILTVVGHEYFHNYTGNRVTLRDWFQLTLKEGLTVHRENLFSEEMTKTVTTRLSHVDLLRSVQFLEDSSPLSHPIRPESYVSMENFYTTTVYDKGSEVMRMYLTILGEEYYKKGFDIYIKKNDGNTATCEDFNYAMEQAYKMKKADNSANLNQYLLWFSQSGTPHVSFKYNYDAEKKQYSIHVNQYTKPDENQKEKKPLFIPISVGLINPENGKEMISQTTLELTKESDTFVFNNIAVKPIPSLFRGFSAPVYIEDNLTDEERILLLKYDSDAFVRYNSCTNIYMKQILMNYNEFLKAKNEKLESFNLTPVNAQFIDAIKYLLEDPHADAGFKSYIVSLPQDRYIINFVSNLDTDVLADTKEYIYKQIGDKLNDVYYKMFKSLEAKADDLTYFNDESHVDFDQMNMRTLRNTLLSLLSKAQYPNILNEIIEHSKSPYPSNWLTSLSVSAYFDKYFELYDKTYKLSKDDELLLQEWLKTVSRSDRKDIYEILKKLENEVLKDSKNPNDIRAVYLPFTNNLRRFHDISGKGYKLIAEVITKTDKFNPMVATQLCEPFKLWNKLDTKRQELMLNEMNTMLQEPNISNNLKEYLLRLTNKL

[1] = NIH3T3 cell viability loss – ATP luminescence, mouse fibroblasts, counter-screen, dose response (AID 2010); format: functional, cell-based;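 further: cells exposed to compound for about 90 hours before reading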
[2] = loss of viability in HepG2 cells – cell-based, CellTiter-Glo, cherry-picked, cytotoxicity control for Shn3 inhibitor project, dose response (AID 624134); format: functional
[3] = non-specific 3'UTR reporter inhibition in Clone20-Shn3RL – cell-based, Renilla luciferase, cherry-picked, counter-screen for Shn3 inhibitor project, dose response (AID 624133); format: functional
[4] = reduction of Shn3 3'UTR-driven luciferase in osteoblasts – cell-based, Clone20 osteoblasts, firefly luciferase, cherry-picked, dose response (AID 624132); format: functional;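 further: firefly luciferase luminescence from reporter carrying the Shn3 3'UTR in osteoblasts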
HT-1080 = experiment: HT1080 cell viability loss – fluorescence readout (AID 620); format: functional, cell-based; details: Homo sapiens
Nonstructural protein 1 = Nonstructural protein 1 (Influenza A virus, UniProt Q194T2); format: functional, Influenza A virus (A/California/07/2009(H1N1))
Chain of Nonstructural protein 1 (Q194T2 whole entry): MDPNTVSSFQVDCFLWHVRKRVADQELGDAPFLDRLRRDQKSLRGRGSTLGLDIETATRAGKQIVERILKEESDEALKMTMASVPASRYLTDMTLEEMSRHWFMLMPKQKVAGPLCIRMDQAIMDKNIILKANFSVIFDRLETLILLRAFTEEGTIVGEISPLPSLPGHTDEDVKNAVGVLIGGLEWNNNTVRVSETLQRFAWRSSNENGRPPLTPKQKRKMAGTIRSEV

[5] = Trypanosoma cruzi growth suppression in host cells – NIH3T3 host cells, beta-gal luminescence, confirmation (AID 2044); format: functional, cell-based;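 further: intracellular parasites grown in NIH/3T3 mouse fibroblasts as host cells; luminescent beta-galactosidase reporter signal from transgenic T. cruzi replicating inside host cells; inhibitors lower the luminescence signal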
cells [6] = format: functional, cell-based
cells [7] = format: functional, cell-based; remark: listed apart in the source
[8] = target: Luciferin 4-monooxygenase (Photinus pyralis, UniProt P08659); experiment: Counter Screen for Luciferase-based Assay Positives. [Related pubchem assays: 620, 618, 411 ]
Chain of Luciferin 4-monooxygenase (P08659 whole entry): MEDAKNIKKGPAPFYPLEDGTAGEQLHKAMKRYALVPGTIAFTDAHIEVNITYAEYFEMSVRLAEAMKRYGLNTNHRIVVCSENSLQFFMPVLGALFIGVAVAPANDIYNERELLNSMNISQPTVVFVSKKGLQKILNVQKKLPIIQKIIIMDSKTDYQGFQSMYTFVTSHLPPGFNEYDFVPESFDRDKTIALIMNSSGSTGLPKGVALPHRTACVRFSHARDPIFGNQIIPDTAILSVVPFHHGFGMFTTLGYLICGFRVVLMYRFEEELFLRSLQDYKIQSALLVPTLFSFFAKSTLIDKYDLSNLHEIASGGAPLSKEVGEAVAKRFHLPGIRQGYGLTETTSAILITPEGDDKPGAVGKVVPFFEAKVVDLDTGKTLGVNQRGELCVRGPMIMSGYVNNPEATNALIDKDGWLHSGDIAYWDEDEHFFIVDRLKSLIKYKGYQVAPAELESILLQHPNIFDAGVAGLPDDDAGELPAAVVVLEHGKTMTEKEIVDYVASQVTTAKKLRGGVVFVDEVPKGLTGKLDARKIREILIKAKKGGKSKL

[9] = viability of PTEN-deleted HCT116 cells – cell-based, HCT116 PTEN knockout, dose response (AID 1047); format: functional;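 further: HCT116 colon tumor cells with PTEN knocked out; cells exposed to compound for 60 hours before readout; potency for loss of cell viability measured by luminescence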
[10] = viability of HCT116 lacking mutant beta-catenin – cell-based, human colon tumor, dose response (AID 1045); format: functional;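 further: HCT116 colon tumor cells with beta catenin knocked out; cells exposed to compound for 60 hours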
[11] = A Cell Based Secondary Assay To Explore Cytotoxicity of Compounds that Sensitize Mycobacterium Tuberculosis to Beta-Lactam Antibiotics.; format: functional
Cytochrome P450 3A4 = Cytochrome P450 3A4 (Homo sapiens, UniProt P08684); details: Potency;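 further: confirmatory qHTS run detecting inhibitors and substrates of CYP3A4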
Chain of Cytochrome P450 3A4 (P08684 whole entry): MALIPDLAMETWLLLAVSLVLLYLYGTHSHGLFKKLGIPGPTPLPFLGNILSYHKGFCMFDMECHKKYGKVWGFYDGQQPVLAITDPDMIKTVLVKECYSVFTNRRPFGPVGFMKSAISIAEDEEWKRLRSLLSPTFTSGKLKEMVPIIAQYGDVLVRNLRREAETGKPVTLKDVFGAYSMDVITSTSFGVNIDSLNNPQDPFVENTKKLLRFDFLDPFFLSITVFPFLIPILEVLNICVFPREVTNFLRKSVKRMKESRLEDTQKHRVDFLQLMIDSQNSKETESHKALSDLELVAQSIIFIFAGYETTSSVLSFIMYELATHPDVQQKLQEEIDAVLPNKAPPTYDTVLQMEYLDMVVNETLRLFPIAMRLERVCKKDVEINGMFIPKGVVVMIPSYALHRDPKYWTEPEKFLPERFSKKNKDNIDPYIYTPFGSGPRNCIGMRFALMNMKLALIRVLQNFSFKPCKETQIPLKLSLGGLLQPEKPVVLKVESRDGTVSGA

[12] = M. tuberculosis H37Rv growth inhibitors, H37Rv strain (AID 1626); format: functional
[13] = target: T3, Heat shock factor protein 1 (Mus musculus, UniProt P38532); experiment: enhancement of HSF1-driven luciferase signal – cell-based, NIH3T3, luminescence, dose retest, confirmation (AID 435004); format: functional;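 further: stress induced by proteasome inhibitor MG132 added 30 min after compound; luciferase reporter driven by HSF1 response element in NIH3T3 cells; actives raise luminescence as potentiators of the MG132 stress response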
T3 sequence (P38532 whole entry): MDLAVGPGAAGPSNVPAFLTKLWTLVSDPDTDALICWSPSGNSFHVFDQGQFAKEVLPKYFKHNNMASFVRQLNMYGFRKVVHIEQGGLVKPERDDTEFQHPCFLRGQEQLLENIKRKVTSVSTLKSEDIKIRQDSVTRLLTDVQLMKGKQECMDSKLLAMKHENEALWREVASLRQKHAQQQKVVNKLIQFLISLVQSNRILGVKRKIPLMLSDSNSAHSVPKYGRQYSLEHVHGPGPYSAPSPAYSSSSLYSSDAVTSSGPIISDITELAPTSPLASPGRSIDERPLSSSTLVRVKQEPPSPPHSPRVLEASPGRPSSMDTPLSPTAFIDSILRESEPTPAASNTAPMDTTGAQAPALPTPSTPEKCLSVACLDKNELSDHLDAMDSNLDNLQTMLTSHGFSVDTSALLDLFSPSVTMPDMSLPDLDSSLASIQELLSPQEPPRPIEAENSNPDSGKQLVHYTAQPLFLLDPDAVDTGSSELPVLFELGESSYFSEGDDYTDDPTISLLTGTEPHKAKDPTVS

Genome polyprotein = Genome polyprotein (dengue virus type 2, UniProt P29990); experiment: flavivirus cap methylation enzyme inhibition – biochemical, confirmation dose response, primary screen (AID 588689); format: functional
Chain of Genome polyprotein (P29990 2492-3391 limits assumed): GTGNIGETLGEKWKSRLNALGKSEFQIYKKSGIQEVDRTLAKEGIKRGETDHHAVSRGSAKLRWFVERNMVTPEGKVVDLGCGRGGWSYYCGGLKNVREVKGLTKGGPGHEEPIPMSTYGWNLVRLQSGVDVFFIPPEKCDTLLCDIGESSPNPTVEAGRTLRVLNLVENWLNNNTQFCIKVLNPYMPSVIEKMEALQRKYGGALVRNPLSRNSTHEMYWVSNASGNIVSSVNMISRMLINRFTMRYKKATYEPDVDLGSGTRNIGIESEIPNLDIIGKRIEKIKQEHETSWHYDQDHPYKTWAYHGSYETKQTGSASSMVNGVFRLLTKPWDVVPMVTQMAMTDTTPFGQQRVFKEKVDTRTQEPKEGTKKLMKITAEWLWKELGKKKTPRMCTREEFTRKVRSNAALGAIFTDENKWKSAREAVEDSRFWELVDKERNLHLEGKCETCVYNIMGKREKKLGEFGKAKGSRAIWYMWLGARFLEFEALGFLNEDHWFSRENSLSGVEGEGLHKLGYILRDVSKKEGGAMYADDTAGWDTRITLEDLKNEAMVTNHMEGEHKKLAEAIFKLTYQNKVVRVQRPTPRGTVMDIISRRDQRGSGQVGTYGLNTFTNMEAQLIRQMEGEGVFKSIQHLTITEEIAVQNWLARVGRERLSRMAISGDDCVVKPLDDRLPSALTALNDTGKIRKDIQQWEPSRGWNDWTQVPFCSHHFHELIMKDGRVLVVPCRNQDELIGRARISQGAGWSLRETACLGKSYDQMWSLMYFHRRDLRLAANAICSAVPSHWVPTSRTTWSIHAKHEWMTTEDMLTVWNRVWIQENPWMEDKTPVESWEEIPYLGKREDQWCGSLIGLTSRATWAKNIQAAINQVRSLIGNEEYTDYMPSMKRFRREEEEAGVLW

Vero = experiment: viability of Vero cells under compound – cytotoxicity control for flavivirus capping enzyme inhibitors (AID 588742); format: functional; details: Chlorocebus sabaeus
Estrogen receptor = target: T4, Estrogen receptor (Homo sapiens, UniProt P03372);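 further: potency for inhibiting coactivator peptide recruitment to the receptor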
T4 sequence (P03372 whole entry): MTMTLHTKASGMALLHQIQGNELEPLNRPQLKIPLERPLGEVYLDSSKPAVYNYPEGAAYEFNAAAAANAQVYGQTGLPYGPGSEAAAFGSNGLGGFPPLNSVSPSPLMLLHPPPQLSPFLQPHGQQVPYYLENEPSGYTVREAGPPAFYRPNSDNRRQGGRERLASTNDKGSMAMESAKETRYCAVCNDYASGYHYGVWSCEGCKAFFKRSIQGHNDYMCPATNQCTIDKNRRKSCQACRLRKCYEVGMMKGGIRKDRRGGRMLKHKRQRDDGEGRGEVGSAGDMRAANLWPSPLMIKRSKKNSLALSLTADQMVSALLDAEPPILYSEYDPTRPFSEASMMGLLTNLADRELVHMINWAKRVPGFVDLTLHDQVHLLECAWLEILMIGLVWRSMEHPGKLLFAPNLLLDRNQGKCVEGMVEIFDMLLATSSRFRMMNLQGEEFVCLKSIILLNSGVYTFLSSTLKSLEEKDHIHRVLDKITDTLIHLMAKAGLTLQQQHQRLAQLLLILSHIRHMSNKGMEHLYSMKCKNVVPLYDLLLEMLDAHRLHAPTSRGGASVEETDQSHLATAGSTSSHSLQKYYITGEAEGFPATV

Trypsin = Trypsin (Sus scrofa, UniProt P00761); experiment: trypsin protease activity blockade – biochemical, quenched peptide fluorescence, cherry-pick, selectivity assay for Rce1 protease inhibitor project, dose response (AID 488789)
Chain of Trypsin (P00761 whole entry): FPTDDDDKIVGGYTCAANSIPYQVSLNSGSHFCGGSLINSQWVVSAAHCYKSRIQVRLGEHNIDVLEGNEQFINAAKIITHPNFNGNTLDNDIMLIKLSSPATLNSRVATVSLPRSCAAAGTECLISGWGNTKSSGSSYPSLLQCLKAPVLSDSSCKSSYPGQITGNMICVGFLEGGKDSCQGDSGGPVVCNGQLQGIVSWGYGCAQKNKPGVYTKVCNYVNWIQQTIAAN

[14] = test system: Streptococcus sp. 'group A'; experiment: Streptococcus pyogenes SK(-)GAS viability under kanamycin – luminescence, BacTiterGlo, confirmation, counter-screen for streptokinase expression inhibitor project, dose response (AID 1900); format: functional, organism-based
Streptococcus = experiment: GAS UMAA2166 growth inhibition – luminescence, BacTiterGlo, counter-screen for streptokinase expression inhibitor project, dose response (AID 1915); format: functional, organism-based;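 further: potency for reduction of bacterial viability or growth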
[15] = Luminescence-based dose response cell-based high throughput screening assay for cytotoxic compounds using the IEC-6 intestinal epithelial cell line. [Related pubchem assays: 1858 (Summary AID.), 1825 (Counterscreen.), 1907 (Confirmation screen.)]; format: functional
Streptokinase A = target: T5, Streptokinase A (Streptococcus pyogenes serotype M1, UniProt P10520); experiment: viability-normalized secreted streptokinase activity reduction – plasminogen activation absorbance, OD405, dose response (AID 1914); format: functional, Streptococcus pyogenes M1 GAS;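 further: secreted streptokinase activity via plasminogen activation per viability signal from cell pellet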
T5 sequence (P10520 whole entry): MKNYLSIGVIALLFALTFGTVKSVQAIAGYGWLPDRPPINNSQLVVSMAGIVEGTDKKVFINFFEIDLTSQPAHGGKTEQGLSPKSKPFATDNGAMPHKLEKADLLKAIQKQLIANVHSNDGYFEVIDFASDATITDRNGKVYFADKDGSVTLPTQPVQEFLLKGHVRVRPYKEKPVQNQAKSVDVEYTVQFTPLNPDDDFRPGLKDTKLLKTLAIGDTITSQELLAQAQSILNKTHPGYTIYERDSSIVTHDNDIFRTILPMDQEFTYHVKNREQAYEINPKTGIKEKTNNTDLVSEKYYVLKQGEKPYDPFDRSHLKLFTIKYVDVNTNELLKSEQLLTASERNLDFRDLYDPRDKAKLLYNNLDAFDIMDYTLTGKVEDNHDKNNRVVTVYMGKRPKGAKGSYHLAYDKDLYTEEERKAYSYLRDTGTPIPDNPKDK

Cytochrome P450 2C19 = Cytochrome P450 2C19 (Homo sapiens, UniProt P33261); experiment: Cytochrome panel assay with activity outcomes. Panel member name: p450-cyp2c19 Compounds with AC50 equal or less than 10 uM are considered active; format: functional; details: read-out: AC50
Chain of Cytochrome P450 2C19 (P33261 whole entry): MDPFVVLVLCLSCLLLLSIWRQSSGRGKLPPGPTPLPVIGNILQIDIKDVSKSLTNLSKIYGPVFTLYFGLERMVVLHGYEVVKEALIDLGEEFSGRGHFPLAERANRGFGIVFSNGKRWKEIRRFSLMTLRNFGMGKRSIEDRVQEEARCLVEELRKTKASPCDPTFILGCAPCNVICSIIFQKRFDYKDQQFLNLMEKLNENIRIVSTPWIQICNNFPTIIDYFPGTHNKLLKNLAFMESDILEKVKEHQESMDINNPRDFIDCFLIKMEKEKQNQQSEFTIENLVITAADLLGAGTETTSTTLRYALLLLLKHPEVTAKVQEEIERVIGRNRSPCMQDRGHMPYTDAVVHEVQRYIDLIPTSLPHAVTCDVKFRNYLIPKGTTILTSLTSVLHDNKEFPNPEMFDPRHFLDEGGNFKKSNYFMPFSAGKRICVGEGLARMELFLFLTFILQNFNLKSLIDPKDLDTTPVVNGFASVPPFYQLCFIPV

## COc1ccc(NC(=O)CC(Cc2ccccc2)C(=O)O)cc1 (stereo unspecified)
Leucine aminopeptidase
  IC50: 18.7 µM (active)

## COCCCn1c(=N)c(C(=O)NCC2CCCO2)cc2c(=O)n3cccc(C)c3nc21 (stereo unspecified)
Aminopeptidase N
  IC50: 78.4 µM (active)

## C=CCNc1nc(-c2ccccn2)nnc1-c1ccccc1
[1]
  EC50: 5.1 µM (active)
[2]
  AC50: 6.36 µM (active)
[3]
  AC50: 3.97 µM (active)
[4]
  AC50: 3.17 µM (active)
HT-1080
  EC50: > 50 µM (not active)
Nonstructural protein 1
  IC50: 1.25 µM (active)
[5]
  EC50: 2.27 µM (active)
Cells [6]
  EC50: 7.13 µM (active)
Cells [7]
  EC50: > 350 µM (not active)
[8]
  EC50: < 0.2 µM (active)

## COc1ccc(-c2c(C(F)(F)F)oc3cc(OCC(=O)Nc4ccccc4C(F)(F)F)ccc3c2=O)cc1OC
[9]
  EC50: 3.45 µM (active)
[10]
  EC50: 3.72 µM (active)
[11]
  CC50: 10.9 µM (active)

## C#CCCCCCCCCCCCc1ccco1
Cytochrome P450 3A4
  AC50: 39.8 µM (inconclusive)

## Cc1ncc(CC(=O)n2cc(C(=O)c3cc(F)ccc3O)cn2)s1
Leucine aminopeptidase
  IC50: 71.1 µM (active)

## CC(C)NC(=O)[C@H]1C[C@@H]1[C@H](NC(=O)OCc1ccccc1)c1ccccc1
Cytochrome P450 3A4
  AC50: 7.94 µM (inconclusive)

## O=C(CCC(=O)Nc1ccc(Oc2ccccc2)cc1)NCCO
[12]
  IC50: > 100 µM (active)

## CCOc1cc([N+](=O)[O-])cc(/C=C2/NC(=O)N(Cc3ccccc3F)C2=O)c1O
[13]
  EC50: > 260 µM (inactive)
Aminopeptidase N
  IC50: 55.6 µM (active)
Genome polyprotein
  IC50: 58.8 µM (active)
Vero
  CC50: > 40 µM (active)

## C[C@@H]1CC=C[C@H]2[C@H]1C(=O)N(Cc1ccccc1)[C@H]2c1ccc(/C=C/c2ccccc2)cc1F
[11]
  CC50: > 40 µM (active)

## COc1cccc(OCc2nnc(SCC(=O)NCc3ccco3)n2CCc2ccccc2)c1
Estrogen receptor
  IC50: > 50 µM (not active)

## CCOc1ccc2[nH]c3c(N4CCc5ccccc5C4)ncnc3c2c1
Trypsin
  AC50: 6.04 µM (active)
[14]
  EC50: 10.4 µM (active)
Streptococcus
  EC50: 19.9 µM (active)
[15]
  IC50: 5.99 µM (active)
Streptokinase A
  EC50: > 150 µM (not active)

## COc1cccc(/C=N/NC(=O)NC23CC4CC(CC(C4)C2)C3)c1O
[11]
  CC50: 23.3 µM (active)

## Cc1nccc(-c2cccc(N/N=C(\C#N)C(=O)c3ccccc3)c2)n1
Aminopeptidase N
  IC50: 16 µM (active)

## Oc1c(/C=N/c2ccc(Oc3ccccc3)cc2)cnn1-c1cccc(Cl)n1
[12]
  IC50: > 100 µM (active)
Cytochrome P450 2C19
  AC50: 11.2 µM (inconclusive)

## CCC/C(=N/Nc1ccc(Cl)cc1)c1cnnc(-c2ccccc2)n1
Estrogen receptor
  IC50: 3.85 µM (active)

## COc1cc(O)c(C)c(O)c1 [2,6-DIHYDROXY-4-METHOXYTOLUENE]
Cytochrome P450 3A4
  AC50: 39.8 µM (inconclusive)

Source: ChEMBL document CHEMBL1201862, “PubChem BioAssay data set” (2004)
